The source of these data is patent US8183383B2, “Protein tyrosine phosphatase 1B inhibitor, preparation methods and uses thereof” (Shanghai Institute of Materia Medica, Chinese Academy of …, priority 2007, dated 2012).

For orientation: IC50 means the point on the concentration scale where inhibition reaches its midpoint.

One experiment concerns the target T1, hPTP1B (Homo sapiens, UniProt P18031).
T1 construct: The catalytic structural domain of hPTP1B was expressed in E-coli system by a molecular biology protocol; made in house; host or cells: E. coli
T1 sequence (P18031 3-277 limits assumed): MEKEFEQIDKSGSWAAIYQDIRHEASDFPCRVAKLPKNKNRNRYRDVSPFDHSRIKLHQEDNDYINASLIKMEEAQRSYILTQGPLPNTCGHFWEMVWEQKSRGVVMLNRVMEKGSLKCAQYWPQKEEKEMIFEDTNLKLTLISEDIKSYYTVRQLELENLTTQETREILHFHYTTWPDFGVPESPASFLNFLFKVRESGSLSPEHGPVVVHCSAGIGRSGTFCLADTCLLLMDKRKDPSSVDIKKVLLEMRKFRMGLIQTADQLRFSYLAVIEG
Nature of the experiment: PTP1B inhibition test (pNPP hydrolysis, absorption at 410 nm). The format is biochemical. Particulars: recombinant hPTP1B catalytic domain 40 nM, 2 mM pNPP, pH 7.0, 2% DMSO; read-out: IC50(μM), inhibitory activity of the test compounds against PTP1B. The source says: 1) Test principle: The catalytic structural domain of hPTP1B was expressed in E-coli system by a molecular biology protocol. The purified hPTP1B recombinant protein can hydrolyze the phosphoester linkage of the pNPP substrate to obtain a product which has a strong light absorption at 410 nm. Therefore, the variation of the enzyme activity and the inhibitory activity of a compound against the enzyme can be observed by directly monitoring the changes in the light absorption at 410 nm. A typical activity assay system is as follows: 50 mM Mops, PH 7.0, 1 mM EDTA, 2 mM DTT, 2 mM PNPP, 2% DMSO, 40 nM hPTP1B.
2) Measuring Index: The light absorption was dynamically measured at 410 nm for 3 min. The slope of the first-order reaction of the dynamic curve thereof was considered as the activity index of the enzymes.
3) Measurement: • 1. 1 mg sample was dissolved in 200 μL DMSO. To each wall of the A2-H11 of a 96-wells polypropylene plate, 20 μL of the solution was added, followed by addition of 80 μL DMSO. The plate was used as mother plate. • 2. To each corresponding wall of a 96-wells polypropylene plate, 2 μL of sample was added with a Biomek 2000 automation workstation. The plate was used as daughter plate for screening. • 3. To each wall of A1-D1 and E12-H12, 2 μL, DMSO was added. These walls were regarded as 100% of enzyme activity for control. • 4. To each wall of A12-D12 and E1-H1, 2 μL positive control with different concentrations (four concentrations prepared by double-fold dilution from […]) was added respectively. • 5. To each wall of A1-H12, 88 μL Assay mix was added respectively. • 6. To each wall of A1-H12, 10 μL hPTP1B was added respectively. • 7. The light absorption was measured at 410 nm for 3 min on a SpectraMAX 340 spectrometer. • 8. Exporting the output into a TXT file, and opening the file with Excel. The average of the Vmax values of A1-D1 and E12-H12 was considered as 100% of enzyme activity.
4) Results: The screening results were the % inhibitory rate against the enzyme when the compound concentration was 20 μg/mL. 1050 value was calculated according to a conventional screening when the inhibitory rate exceeded 50%. The […] value of the positive control, 4-[4-(4-oxalyl-phenoxymethyl)-benzyloxy]-phenyl-oxo-acetic acid, is 5.4 μM [Christopher T. Seto, et al. J. Med. Chem., 2002, 45, 3946-3952].
For `CCOC(=O)/C(C)=C\C(C)=C\c1csc([C@H](Cc2ccc(OCc3ccccc3)cc2)NC(=O)CC2CCCCC2)n1` [WY586s], the IC50 worked out at 2.48 µM.
For the compound `CCOC(=O)/C(C)=C\C(C)=C\c1csc([C@H](Cc2ccc(OCc3ccccc3)cc2)NC(=O)C(=O)c2ccccc2)n1` [WY594], the IC50 was found to be 6.92 µM.
Same read-out and setting: to `CCOC(=O)/C(C)=C\C(C)=C\c1csc([C@H](Cc2ccc(OCc3ccccc3)cc2)NC(=O)c2ccc(OC)cc2)n1` [WY596s] belongs 44.8 µM.
In the case of `CCOC(=O)/C(C)=C\C(C)=C\c1csc([C@H](Cc2ccc(OCc3ccc(C#N)cc3)cc2)NC(=O)C2CCCCC2)n1` [WY597h], the IC50 is more than 35 µM.
`CCOC(=O)/C(C)=C\C(C)=C\c1csc([C@H](Cc2ccc(OCc3ccccc3)cc2)NC(=O)C(=O)C2CCCCC2)n1` [WY600]: the IC50 came to 3.44 µM.
With `CCOC(=O)/C(C)=C\C(C)=C\c1csc([C@H](Cc2ccc(OCc3ccccc3)cc2)NC(=O)C(=O)c2cccs2)n1` [WY600t], the IC50 is 10.9 µM.
For `CCOC(=O)/C(C)=C\C(C)=C\c1csc([C@H](Cc2ccc(OCc3ccccc3)cc2)NC(=O)C(O)C2CCCCC2)n1` (stereo partly shown) [WY602-2], the IC50 was 13.5 µM.
On to `CCOC(=O)/C(C)=C\C(C)=C\c1csc([C@H](Cc2ccc(OCc3ccc(OC)cc3)cc2)NC(=O)C2CCCCC2)n1` [WY602h], for which the IC50 stood at 25.6 µM.
Turning to `CCOC(=O)/C(C)=C\C(C)=C\c1csc([C@H](Cc2ccc(OCc3ccccc3)cc2)NC(=O)COCc2ccccc2)n1` [WY610s], the IC50 is 9.42 µM.
Turning to `CCOC(=O)/C(C)=C\C(C)=C\c1csc([C@H](Cc2ccc(OCc3ccccc3)cc2)NC(=O)C(=O)c2ccc(F)cc2)n1` [WY612], the IC50 was 5.13 µM.
Consider `CCOC(=O)/C(C)=C\C(C)=C\c1csc([C@H](Cc2ccc(OCc3ccccc3)cc2)NC(=O)N2CCC(C(=O)O)CC2)n1` [WY617a], for which the 50% inhibitory concentration (IC50) came to 6.47 µM.
For the compound `C/C(=C/C(C)=C/c1nc([C@H](Cc2ccc(OCc3ccccc3)cc2)NC(=O)C2CCCCC2)sc1-c1ccccc1)C(=O)O` [WY620a], the IC50 was determined as 4 µM.
Consider `CCOC(=O)/C(C)=C\C(C)=C\c1csc([C@H](Cc2ccc(Oc3ccc([N+](=O)[O-])cc3F)cc2)NC(=O)C2CCCCC2)n1` [WY621h], for which the IC50 is more than 35 µM.
For the compound `CCOC(=O)/C(C)=C\C(C)=C\c1csc([C@H](Cc2ccc(OCc3ccc4ccccc4c3)cc2)NC(=O)C2CCCCC2)n1` [WY622h], the IC50 is more than 35 µM.
Regarding `CCOC(=O)/C(C)=C\C(C)=C\c1csc([C@H](Cc2ccc(OCc3ccccc3)cc2)NC(=O)c2cc3ccccc3s2)n1` [WY622s], the IC50 worked out at 25.6 µM.
For the compound `CCOC(=O)/C(C)=C\C(C)=C\c1nc([C@@H](Cc2ccc(OCc3ccccc3)cc2)NC(=O)C2CCCCC2)sc1CC(C)C` [WY628z2], the IC50 is 10.5 µM.
Turning to `CCOC(=O)/C(C)=C\C(C)=C\c1nc([C@H](Cc2ccc(OCc3ccccc3)cc2)NC(=O)C2CCCCC2)sc1CC(C)C` [WY628z], the IC50 was found to be 6.68 µM.
`C/C(=C/C(C)=C/c1nc([C@H](Cc2ccc(OCc3ccccc3)cc2)NC(=O)CC2CCCCC2)sc1-c1ccccc1)C(=O)O` [WY634a]: the IC50 was determined as 3.97 µM.
With `CCOC(=O)/C(C)=C\C(C)=C\c1csc([C@H](Cc2ccc(OCc3ccccc3)cc2)NC(=O)C(=O)COCc2ccccc2)n1` [WY638], the IC50 was determined as 4.1 µM.
On to `CCOC(=O)/C(C)=C\C(C)=C\c1csc([C@H](Cc2ccc(OCc3ccccc3)cc2)NC(=O)N2CCC(C(=O)OCC)CC2)n1` [WY645s], for which the IC50 was found to be 10.5 µM.
Same read-out and setting: the value for `CCOC(=O)/C(C)=C\C(C)=C\c1nc([C@H](Cc2ccc(OCc3ccccc3)cc2)NC(=O)C2CCCCC2)sc1-c1ccccc1` [WY648z] was 3.3 µM; that for `CCOC(=O)/C(C)=C\C(C)=C\c1csc([C@H](Cc2ccc(OCc3ccccc3)cc2)NC(=O)C(OCc2ccccc2)C(C)C)n1` (stereo partly shown) [WY652s] was 9.98 µM; that for `CCOC(=O)/C(C)=C\C(C)=C\c1csc([C@H](Cc2ccc(OCc3ccccc3)cc2)NC(=O)N[C@@H](Cc2ccc(OCc3ccccc3)cc2)c2nc(/C=C(C)/C=C(/C)C(=O)OCC)cs2)n1` [WY951] was 6.29 µM.

For a further experiment, the system named is insulin receptors (IRs) in CHO/IR cells. The experiment can be described thus: Effect on the phosphorylation level of insulin receptors in CHO/IR cells. The format is cell-based. The settings on record: CHO/IR cells, 0.21, 0.43, 0.85, 1.70 μM, 10 nM insulin stimulation, FIG. 1. The source says: 1). Experimental principle: The phosphorylation levels of insulin receptors (IRs) in cells sensitive to insulin are regulated by PTK and PTPase. PTP1B is a negative regulator during the process. It can be evaluated by measuring the phosphorylation level of IRs in CHO/IR cells whether the PTP inhibitor has entered into the cells and how its effect in cells is.
2). Experimental Protocol: • 1. Cell inoculation: Cells in good growth condition were inoculated into a 6-well plate with a density of 3-4×10^5 cells/well. To each well was added 2 mL F12 culture media containing 10% FBS. • 2. Starvation: After cultivation for 24 h, to each well was added 2 mL serum-free F12 culture media. Then the plate was cultivated overnight. • 3. Administration: After removing the old culture media, to each well was added 0.9 mLserum-free F12 culture media containing the test compound, wherein 1 mM Na3VO4 and 0.1% DMSO were used as positive and negative control, respectively. The plate was incubated for 2-4 h. • 4. Insulin stimulation: To each well was added 100 μL 100 nM insulin solution so that the final concentration was 10 nM. The reaction was carried out for 10 min. • 5. Sample collection: After discarding the culture media, to each well was added 150 μL×1 loading buffer. […]
3). Experimental results: The experiment evaluated the effect of WY586s on the phosphorylation levels of insulin receptors in CHO/IR cells. […]
For `CCOC(=O)/C(C)=C\C(C)=C\c1csc([C@H](Cc2ccc(OCc3ccccc3)cc2)NC(=O)CC2CCCCC2)n1` [WY586s], the “phosphorylation level of IR (p-IR)” value is recorded as “significantly increases with the increase of the concentration of the inhibitor”.

In a further experiment the target is T1, hPTP1B.
Assay: not given
Particulars: positive control; literature reference Seto et al. J. Med. Chem. 2002; cited from earlier work.
As for `O=C(O)C(=O)c1ccc(OCc2ccc(COc3ccc(C(=O)C(=O)O)cc3)cc2)cc1` [4-[4-(4-oxalyl-phenoxymethyl)-benzyloxy]-phenyl-oxo-acetic acid], the IC50 is 5.4 µM.
